Several values for one entry are separate records, joined by “and”; a condition that tells them apart may be missing. Identical values can stand only once.
What follows are compounds tested against NK1 receptor (Homo sapiens, UniProt P25103) (assay: NK1 receptor binding: inhibition of the NK1 agonist Substance P, Ki from percent of maximum specific binding). Settings: inhibition constant from the concentration giving 50% inhibition of binding (Chang-Prusoff equation).
Sequence of NK1 receptor (P25103 whole entry, species assumed): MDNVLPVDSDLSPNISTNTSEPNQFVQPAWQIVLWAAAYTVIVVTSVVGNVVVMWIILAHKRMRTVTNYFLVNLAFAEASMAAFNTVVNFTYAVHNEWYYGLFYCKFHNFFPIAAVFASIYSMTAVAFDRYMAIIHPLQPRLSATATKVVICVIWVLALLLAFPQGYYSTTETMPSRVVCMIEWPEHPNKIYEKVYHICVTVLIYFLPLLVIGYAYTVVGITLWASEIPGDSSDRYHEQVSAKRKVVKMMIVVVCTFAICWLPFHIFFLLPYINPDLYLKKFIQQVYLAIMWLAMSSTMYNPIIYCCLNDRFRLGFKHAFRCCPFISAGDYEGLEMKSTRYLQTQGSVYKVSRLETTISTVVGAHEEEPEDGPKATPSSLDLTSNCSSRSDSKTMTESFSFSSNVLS
Source text: The in vitro and in vivo NK1, NK2 and NK3 activities of the compounds having the formula (I) can be determined by various procedures known in the art, such as a test for their ability to inhibit the activity of the NK1 agonist Substance P. The percent inhibition of neurokinin agonist activity is the difference between the percent of maximum specific binding (“MSB”) and 100%. The percent of MSB is defined by the following equation, wherein “dpm” represents “disintegrations per minute”:
[formula] The concentration at which the compound produces 50% inhibition of binding is then used to determine an inhibition constant (“Ki”) using the Chang-Prusoff equation. In vivo activity may be measured by inhibition of an agonist-induced foot tapping in a gerbil, as described in Science, 281, 1640–1695 (1998), which is herein incorporated by reference thereto.
With O=C1CCCN1N1CCC(COCc2cc(C(F)(F)F)cc(C(F)(F)F)c2)(c2ccccc2)CC1 [Example 49] the Ki was 0.3 to 3 nM.
For O=C1NCCN1N1CCC(COCc2cc(C(F)(F)F)cc(C(F)(F)F)c2)(c2ccccc2)CC1 [Example 51], the Ki was 0.3 to 3 nM.
With C[C@@H](OCC1(c2ccccc2)CCN(N2CCCC2=O)CC1)c1cc(C(F)(F)F)cc(C(F)(F)F)c1 [Example 56] the Ki was 0.3 to 3 nM and ~0.3 nM.
Work on O=C1CCCN1N1CCC(COC(CO)c2cc(C(F)(F)F)cc(C(F)(F)F)c2)(c2ccccc2)CC1 (centres unmarked) [Example 57] yielded a Ki of 0.3 to 3 nM.
Work on O=c1[nH]ncn1N1CCC(COCc2cc(C(F)(F)F)cc(C(F)(F)F)c2)(c2ccccc2)CC1 [Example 64] yielded a Ki of 0.3 to 3 nM.

— patent publication US7041682B2, “NK1 antagonists” (Schering Corporation, priority 2002, dated 2006)
